Test results: patent US7319086B1, “Method of prophylaxis and treatment and agents useful for same” (priority 1999, dated 2008)

Legend:
Design in all cases: species or system P. gingivalis
[1] = biological target: binding of rHA2 or the gingipains (RgpA, Kgp) to hemin (Porphyromonas gingivalis, UniProt Q51816, A1188S/A1219P/Q1165E); assay: solution-phase competition assay, hemin-coated wells; details: read-out: IC50, inhibition of binding to hemin
Procedure: (§1) Data are representative of two separate experiments. The absence of contaminating protein in a 90 μg protoporphyrin IX preparation was verified by SDS-PAGE and by Coomassie dye binding.
(§2) The IC50s for ligand binding in solution phase competition assays were determined. […] Hemoglobin was used as it was considered to represent the dominant form of porphyrin presentation in the pathological environment of chronic periodontitis.

[2] = biological target: binding of rHA2 or the gingipains (RgpA, Kgp) to hemoglobin (Porphyromonas gingivalis, UniProt Q51816, A1188S/A1219P/Q1165E); assay: solution-phase competition assay, hemoglobin-coated wells (rHA2 or gingipains); details: preincubated 1 hr, read-out: IC50, inhibition of binding to hemoglobin
Procedure: as §1, §2

rHA2 = assay: directed porphyrin binding: porphyrins linked by carbodiimide to ethylene diamine-coated wells; details: propionic acid groups linked to fixed amines, compared with non-derivatized porphyrin; 125 ng/ml rHA2
Procedure: Microtiter wells were coated with 100 mM ethylene diamine (pH 4.7) then incubated with 90 μg/ml hemin, protoporphyrin IX, or hematoporphyrin overnight in 50% dimethyl formamide in the presence (+) or absence (−) of 10 mM carbodiimide. Wells were washed 4 times with water then the amount of porphyrin bound to the wells was determined by absorbance at 414 nm (striped bars). […] Error bars represent standard deviation of absorbance measurements. Diagrams of chemical structures for hemin, protoporphyrin IX, and hematoporphyrin are presented adjacent to corresponding data.
The inventors reasoned, therefore, that blocking access to the acidic region of protoporphyrin molecules would have an effect on rHA2-binding and allow more specific characterization of binding between the HA2 domain and the porphyrin ring. Modifying the ligand binding assay system used above, surfaces were first coated with ethylene diamine to provide fixed, free, primary amines for carbodiimide linkage of carboxylic acid groups.

Compound: C=CC1=C(C)c2cc3[nH]c(cc4nc(cc5[nH]c(cc1n2)c(C)c5CCC(=O)O)C(CCC(=O)O)=C4C)c(C)c3C=C [protoporphyrin IX]
- IC50 [1]: ~2.5 µM
- IC50 [2]: 10 ± 2 µM

Compound: hemin
- rHA2-binding to carbodiimide-treated porphyrin (rHA2): almost eliminated
